Results published in the NIST ThermoML archive (doi:10.1016/j.jct.2004.07.018).

Assay: mn = molality of the nth substance listed, in mol/kg
Conditions: 101.3 kPa, Liquid, buoyancy

CCOS(=O)(=O)[O-].CCn1cc[n+](C)c1 [1-ethyl-3-methylimidazolium ethyl sulfate] + O
Conditions	mass density [kg/m3]
278.15 K, m1 = 0.2224	1010
278.15 K, m1 = 0.4472	1019.6
278.15 K, m1 = 0.6739	1028.5
278.15 K, m1 = 0.903	1037.1
278.15 K, m1 = 1.132	1045.3
278.15 K, m1 = 1.364	1053.1
278.15 K, m1 = 1.598	1060.5
278.15 K, m1 = 1.835	1067.6
278.15 K, m1 = 2.072	1074.2
278.15 K, m1 = 2.313	1080.5
278.15 K, m1 = 2.554	1086.4
278.15 K, m1 = 2.798	1092.2
278.15 K, m1 = 3.044	1098.2
283.15 K, m1 = 0.2224	1009.6
283.15 K, m1 = 0.4472	1018.9
283.15 K, m1 = 0.6739	1027.7
283.15 K, m1 = 0.903	1036.1
283.15 K, m1 = 1.132	1044
283.15 K, m1 = 1.364	1051.5
283.15 K, m1 = 1.598	1058.8
283.15 K, m1 = 1.835	1065.6
283.15 K, m1 = 2.072	1072
283.15 K, m1 = 2.313	1078.2
283.15 K, m1 = 2.554	1084
283.15 K, m1 = 2.798	1089.6
283.15 K, m1 = 3.044	1095
288.15 K, m1 = 0.2224	1008.7
288.15 K, m1 = 0.4472	1017.8
288.15 K, m1 = 0.6739	1026.5
288.15 K, m1 = 0.903	1034.8
288.15 K, m1 = 1.132	1042.6
288.15 K, m1 = 1.364	1050.1
288.15 K, m1 = 1.598	1057.2
288.15 K, m1 = 1.835	1063.8
288.15 K, m1 = 2.072	1070.2
288.15 K, m1 = 2.313	1076.2
288.15 K, m1 = 2.554	1082
288.15 K, m1 = 2.798	1087.4
288.15 K, m1 = 3.044	1092.5
293.15 K, m1 = 0.2224	1007.6
293.15 K, m1 = 0.4472	1016.7
293.15 K, m1 = 0.6739	1025.2
293.15 K, m1 = 0.903	1033.3
293.15 K, m1 = 1.132	1041
293.15 K, m1 = 1.364	1048.3
293.15 K, m1 = 1.598	1055.2
293.15 K, m1 = 1.835	1061.9
293.15 K, m1 = 2.072	1068.1
293.15 K, m1 = 2.313	1074.1
293.15 K, m1 = 2.554	1079.6
293.15 K, m1 = 2.798	1085
293.15 K, m1 = 3.044	1090
298.15 K, m1 = 0.2224	1006.3
298.15 K, m1 = 0.4472	1015
298.15 K, m1 = 0.6739	1023.3
298.15 K, m1 = 0.903	1031.2
298.15 K, m1 = 1.132	1038.7
298.15 K, m1 = 1.364	1045.7
298.15 K, m1 = 1.598	1052.5
298.15 K, m1 = 1.835	1058.9
298.15 K, m1 = 2.072	1064.9
298.15 K, m1 = 2.313	1070.6
298.15 K, m1 = 2.554	1076.1
298.15 K, m1 = 2.798	1081.3
298.15 K, m1 = 3.044	1086.2
303.15 K, m1 = 0.2224	1004.7
303.15 K, m1 = 0.4472	1013.3
303.15 K, m1 = 0.6739	1021.6
303.15 K, m1 = 0.903	1029.3
303.15 K, m1 = 1.132	1036.8
303.15 K, m1 = 1.364	1043.9
303.15 K, m1 = 1.598	1050.6
303.15 K, m1 = 1.835	1057
303.15 K, m1 = 2.072	1062.9
303.15 K, m1 = 2.313	1068.6
303.15 K, m1 = 2.554	1074.1
303.15 K, m1 = 2.798	1079.4
303.15 K, m1 = 3.044	1084.3
308.15 K, m1 = 0.2224	1002.9
308.15 K, m1 = 0.4472	1011.6
308.15 K, m1 = 0.6739	1019.6
308.15 K, m1 = 0.903	1027.7
308.15 K, m1 = 1.132	1034.6
308.15 K, m1 = 1.364	1041.5
308.15 K, m1 = 1.598	1048.3
308.15 K, m1 = 1.835	1054.6
308.15 K, m1 = 2.072	1060.5
308.15 K, m1 = 2.313	1066.2
308.15 K, m1 = 2.554	1071.7
308.15 K, m1 = 2.798	1076.8
308.15 K, m1 = 3.044	1081.8
313.15 K, m1 = 0.2224	1001.1
313.15 K, m1 = 0.4472	1009.6
313.15 K, m1 = 0.6739	1017.9
313.15 K, m1 = 0.903	1025.6
313.15 K, m1 = 1.132	1032.8
313.15 K, m1 = 1.364	1039.7
313.15 K, m1 = 1.598	1046.4
313.15 K, m1 = 1.835	1052.8
313.15 K, m1 = 2.072	1058.8
313.15 K, m1 = 2.313	1064.4
313.15 K, m1 = 2.554	1069.8
313.15 K, m1 = 2.798	1074.9
313.15 K, m1 = 3.044	1079.8
318.15 K, m1 = 0.2224	999
318.15 K, m1 = 0.4472	1007.5
318.15 K, m1 = 0.6739	1015.6
318.15 K, m1 = 0.903	1023.1
318.15 K, m1 = 1.132	1030.4
318.15 K, m1 = 1.364	1037.3
318.15 K, m1 = 1.598	1043.9
318.15 K, m1 = 1.835	1050.2
318.15 K, m1 = 2.072	1056.1
318.15 K, m1 = 2.313	1061.7
318.15 K, m1 = 2.554	1067.1
318.15 K, m1 = 2.798	1072.3
318.15 K, m1 = 3.044	1077.1
323.15 K, m1 = 0.2224	996.6
323.15 K, m1 = 0.4472	1005.1
323.15 K, m1 = 0.6739	1013
323.15 K, m1 = 0.903	1020.5
323.15 K, m1 = 1.132	1027.9
323.15 K, m1 = 1.364	1034.7
323.15 K, m1 = 1.598	1041.3
323.15 K, m1 = 1.835	1047.7
323.15 K, m1 = 2.072	1053.6
323.15 K, m1 = 2.313	1059.4
323.15 K, m1 = 2.554	1064.8
323.15 K, m1 = 2.798	1070
323.15 K, m1 = 3.044	1074.9
328.15 K, m1 = 0.2224	994.1
328.15 K, m1 = 0.4472	1002.6
328.15 K, m1 = 0.6739	1010.6
328.15 K, m1 = 0.903	1018.1
328.15 K, m1 = 1.132	1025.3
328.15 K, m1 = 1.364	1032.1
328.15 K, m1 = 1.598	1038.7
328.15 K, m1 = 1.835	1045.1
328.15 K, m1 = 2.072	1051.1
328.15 K, m1 = 2.313	1056.8
328.15 K, m1 = 2.554	1062.4
328.15 K, m1 = 2.798	1067.4
328.15 K, m1 = 3.044	1072.7
333.15 K, m1 = 0.2224	991.4
333.15 K, m1 = 0.4472	999.8
333.15 K, m1 = 0.6739	1007.7
333.15 K, m1 = 0.903	1015.4
333.15 K, m1 = 1.132	1022.7
333.15 K, m1 = 1.364	1029.7
333.15 K, m1 = 1.598	1036.4
333.15 K, m1 = 1.835	1042.7
333.15 K, m1 = 2.072	1048.9
333.15 K, m1 = 2.313	1054.9
333.15 K, m1 = 2.554	1060.4
333.15 K, m1 = 2.798	1065.8
333.15 K, m1 = 3.044	1070.9
